# Laboratory results published in patent US11208443B2, “NAF-1 derived peptides and uses thereof” (YISSUM RESEARCH DEVELOPMENT COMPANY OF THE HEBREW …, priority 2017, dated 2021).
# Non-standard residues stand in square brackets, D forms with d. Residues, ends and D or L forms follow the SMILES beside them.
# Columns and labels:
# [1] = test system: MDA-MB-231 breast cancer spheroids; test: 3D spheroid apoptosis/cytotoxicity, Annexin V-red, IncuCyte; assay type: cell-based, human; conditions: incubated for 36 hours, 10 or 50 μM, FIG. 11
# Procedure: (§1) The MDA-MB-231 cells were plated in quadruplicate at 2×10^3 cells per well in a 96 well ULA plate (Corning 7007) and the cells were further cultured for 3 days to form spheroids. Then, the spheroids were treated with the peptides having SEQ ID NO:1 and the apoptosis of spheroids was assayed using Annexin V-red detection marker. Spheroids were imaged at ×10 magnification in an IncuCyte Zoom Live-cell analysis system (Essen Bioscience) at 37° C. with 5% CO2. Spheroid cell images were recorded every two hours and the resulting red colors, reflecting cell apoptosis, were analyzed with the IncuCyte software.)
# (§2) Similarly to Example 2, the effect of D-PEP on “tumor like” 3D cancer cell spheroids of prostate cancer cells PC3 and MDA-MB-231, was tested and quantified. Annexin V-red apoptosis marker indicator was used to assess cytotoxicity and the cytotoxicity was calculated as integrated intensity over the surface (RCU×μm^2/Image).
# [2] = test system: chymotrypsin; test: Stability against protease cleavage, HPLC; assay type: in vitro ADME; conditions: 0.001 mg/ml protease, 22° C., FIG. 17A
# Procedure: (§3) Stability of the D-PEP, and 3D-PEP, analogs, and of PEG-N-3D-PEP and PEG-C-3D-PEP conjugates against protease cleavage (chymotrypsin and trypsin) was tested and compared to stability of the native peptide having SEQ ID NO: 1. To peptides' stocks of 430 μl in concentration of 450 μM were added 0.001 mg/ml protease (Trypsin or Chymotrypsin) and incubated in room temperature (22° C.). Samples of 40 μl were taken before adding the protease and after every 15 min in the first hour, and after 2 […] and 24 h. To stop the proteolysis samples were added 7 μl of 2% TFA in TDW. The samples were added 60 μl TDW and were analyzed using analytical HPLC.
# [3] = test system: PC3 (prostate cancer) spheroids; test: 3D spheroid cytotoxicity, Annexin V-red, IncuCyte; assay type: cell-based
# Procedure: as §1, §2
# [4] = Mice weight in xenograft study; assay type: in vivo; conditions: 135 μg/Kg IP or IT, days 18-30; all groups
# Procedure: 30 female athymic nude (FOXN1NU) mice (5-6 weeks old) were injected subcutaneously (S.C.) with 2.5×10^6 MDA-MB-231 cells overexpressing NAF-1. Two and half weeks (day 18) after S.C. injection, mice weight and tumor size was measured. Mice were divided into three different treatment groups that were administrated 3 serial injections per week, on days 18, 21, 23, 25, 28, and 30. The groups were as follows: Group 1: Intraperitoneal (IP) injection of 135 μg/Kg D-PEP; Group 2: Intratumoral (IT) injection of PBS—control; and Group 3: Intratumoral (IT) injection of 135 μg/Kg D-PEP. On days 18, 21, 23, 25, 28 and 30 after S.C. injection of the tumor cells, tumor size and mice weight was measured in all groups.
# [5] = test system: trypsin; test: Stability against protease cleavage, HPLC; assay type: in vitro ADME; conditions: 0.001 mg/ml protease, 450 μM peptide, 22° C.; FIG. 17B
# Procedure: as §3
smiles,measurement,setting,value
"CC(C)C[C@@H](NC(=O)[C@H](N)Cc1ccccc1)C(=O)NCC(=O)N[C@@H](C(=O)N[C@H](CC(C)C)C(=O)N[C@H](C)C(=O)N[C@H](CC(C)C)C(=O)N[C@H](CC(C)C)C(=O)NCC(=O)N[C@H](Cc1ccc(O)cc1)C(=O)N[C@H](CC(C)C)C(=O)N[C@H](C)C(=O)N[C@@H](C(=O)N[C@H](CCCNC(=N)N)C(=O)N1CCC[C@@H]1C(=O)N[C@H](Cc1ccccc1)C(=O)N[C@H](CC(C)C)C(=O)N1CCC[C@@H]1C(=O)N[C@H](CCCCN)C(=O)N[C@H](CCCCN)C(=O)N[C@H](CCCCN)C(=O)N[C@H](CCC(N)=O)C(=O)N[C@H](CCC(N)=O)C(=O)N[C@H](CCCCN)C(=O)O)C(C)C)C(C)C [D-PEP, flgvlallgylavrpflpkkkqqk] (H-[dF][dL]G[dV][dL][dA][dL][dL]G[dY][dL][dA][dV][dR][dP][dF][dL][dP][dK][dK][dK][dQ][dQ][dK]-OH; N-terminus and C-terminus assumed)",cytotoxicity (total toxicity integrated intensity),[1],comparable to that seen for PC3 cell
same,"metabolised at 1400 min, 450 μM","[2]; chymotrypsin (isolated protease), after 1400 min, read-out: peptide degraded by chymotrypsin",20%
same,cytotoxicity (total toxicity integrated intensity),"[3]; 10 μM, incubation for 8 hours, FIG. 7",much more moderate
same,cytotoxicity (total toxicity integrated intensity),"[3]; 50 μM, 36 hour, compared to control, FIG. 8",much more significant cytotoxic effect than 10 μM of D-PEP
same,cytotoxicity (total toxicity integrated intensity),"[3]; 50 μM, incubation for 8 hours, FIG. 7",substantial cytotoxic effect
same,mice weight,[4],not significant change in the weight of mice
CC(C)C[C@H](NC(=O)[C@H](C)NC(=O)[C@H](CC(C)C)NC(=O)[C@@H](NC(=O)CNC(=O)[C@H](CC(C)C)NC(=O)[C@@H](N)Cc1ccccc1)C(C)C)C(=O)N[C@@H](CC(C)C)C(=O)NCC(=O)N[C@@H](Cc1ccc(O)cc1)C(=O)N[C@@H](CC(C)C)C(=O)N[C@@H](C)C(=O)N[C@H](C(=O)N[C@@H](CCCNC(=N)N)C(=O)N1CCC[C@H]1C(=O)N[C@@H](Cc1ccccc1)C(=O)N[C@@H](CC(C)C)C(=O)N1CCC[C@H]1C(=O)N[C@@H](CCCCN)C(=O)N[C@@H](CCCCN)C(=O)N[C@@H](CCCCN)C(=O)N[C@@H](CCC(N)=O)C(=O)N[C@@H](CCC(N)=O)C(=O)N[C@@H](CCCCN)C(=O)O)C(C)C [SEQ ID NO: 1] (H-FLGVLALLGYLAVRPFLPKKKQQK-OH; N-terminus and C-terminus assumed),time to complete degradation by trypsin,[5],400 min
same,time to complete degradation by chymotrypsin,[2]; 450 μM peptide,~100 min
